Measured values from patent US8063109B2, “Formulations for parenteral administration of (e)-2, 6-dialkoxystyryl 4-substituted benzylsulfones” (Onconova Therapeutics, Inc., priority 2004, dated 2011).

Columns and labels:
tumors = assay: Synergy with chemotherapeutic agents; format: in vivo; settings: often inducing complete regression of tumors
[1] = test system: Patients With Advanced Solid Tumors; assay: Phase I dose escalation study, 2-hour intravenous infusion; format: in vivo, human
Protocol: Safety and efficacy of this formulation, for example, is tested in a Phase I clinical study, at The Johns Hopkins Sidney Kimmel Cancer Center, Baltimore, Md., i.e., “Phase I Dose Escalation Study Of ON 01910.Na By 2-Hour Intravenous Infusion In Patients With Advanced Solid Tumors”. U.S. FDA IND #66,780. The objectives of this study include an identification of a maximum tolerated dose (MTD) and a recommended dose for further clinical studies. A further object of the study is to establish a safety profile, i.e., to observe any toxicities. The patients in this study have advanced solid tumors that have failed conventional treatments, or for which no approved therapy exists. An object of the study is particularly to observe efficacy (anti-cancer effects).
The patients are administered the preferred formulation described herein of the ON 01910.Na drug (properly diluted in intravenous solution) over a two hour period, twice per week, for three weeks. The patients are subsequently observed for […], to constitute a four week treatment cycle.
This study started with a single patient at the first starting dose level of 80 mg per patient. If there is no grade 2 or worse drug-related toxicity (side effects) observed in the first four week cycle, then another patient may be dosed at the next higher dose level. The first patient was dosed at 80 mg per patient on Aug. 3, 2004. […]

[2] = Long term stability of ON 01910.Na 75 mg/mL in 100% PEG-400 for clinical use (HPLC); format: physicochemical
Protocol: ON 01910.Na IV solution was manufactured at a concentration of 75 mg/mL in 100% PEG-400. The finished product consisted of 3 mL of drug product aseptically filled into presterilized 5 mL vials. The manufacturing was in compliance with current Good Manufacturing Practices regulations.
(a) HPLC—Chromatography is performed using a Phenomenex Luna C-18 (2), 5 micron (4.6 mm×250 mm, PN 00G-4252-E0) column at ambient conditions. The mobile phase used is 60%-0.1% trifluoroacetic acid in water; 40% acetonitrile. The flow rate is set at 2.0 ml/min. Injection volume is 50 μL. Detection is accomplished by means of a UV/VIS detector at 230, 254, and 320 nm. Instrument control and data acquisition is facilitated using a Waters Millennium (V 2.15) software package. The external calibration is obtained using ON 01910.Na standard solutions prepared in 50:50 acetonitrile:water. This analytical method was validated.

Row | SMILES | synergy with chemotherapeutic agents (tumors) | drug-related toxicity ([1]; 80 to 2080 mg per patient, 2 hour iv infusion, twice per week for three weeks, four week cycle) | dose safely administered ([1]; iv 2 hour infusion, twice per week, for 3 weeks, ten days off) [mg] | shelf stability ([2]; 75 mg per ml in 100% PEG-400) | long term stability ([2]; 100% PEG-400 formulation for clinical use)
1 | COc1cc(OC)c(/C=C/S(=O)(=O)Cc2ccc(OC)c(NCC(=O)O)c2)c(OC)c1 [Compound 4, (E)-2,4,6-Trimethoxystyryl-3-(carboxymethylamino)-4-methoxybenzylsulfone] | strong synergy |  |  |  | 
2 | COc1cc(OC)c(/C=C/S(=O)(=O)Cc2ccc(OC)c(NCC(=O)[O-])c2)c(OC)c1.[Na+] [ON 01910.Na, (E)-2,4,6-trimethoxystyryl-3-carboxymethylamino-4-methoxybenzylsulfone] |  | no grade 2 or worse toxicities | ≥ 2080 | shelf-stable for over one year | extremely stable
